In paper PMC12498190, “A Photocaged N‐Phosphonopiperidinone as a Selective Photo‐Cleavable DPP8/9 Inhibitor” (Chembiochem, 2025):

Target: T1, prolyl endopeptidase (PREP) (Homo sapiens, UniProt P48147)
T1 construct: endogenous in cells; host or cells: HEK293 (Cytion, Germany, 300192)
T1 sequence (P48147 1-710): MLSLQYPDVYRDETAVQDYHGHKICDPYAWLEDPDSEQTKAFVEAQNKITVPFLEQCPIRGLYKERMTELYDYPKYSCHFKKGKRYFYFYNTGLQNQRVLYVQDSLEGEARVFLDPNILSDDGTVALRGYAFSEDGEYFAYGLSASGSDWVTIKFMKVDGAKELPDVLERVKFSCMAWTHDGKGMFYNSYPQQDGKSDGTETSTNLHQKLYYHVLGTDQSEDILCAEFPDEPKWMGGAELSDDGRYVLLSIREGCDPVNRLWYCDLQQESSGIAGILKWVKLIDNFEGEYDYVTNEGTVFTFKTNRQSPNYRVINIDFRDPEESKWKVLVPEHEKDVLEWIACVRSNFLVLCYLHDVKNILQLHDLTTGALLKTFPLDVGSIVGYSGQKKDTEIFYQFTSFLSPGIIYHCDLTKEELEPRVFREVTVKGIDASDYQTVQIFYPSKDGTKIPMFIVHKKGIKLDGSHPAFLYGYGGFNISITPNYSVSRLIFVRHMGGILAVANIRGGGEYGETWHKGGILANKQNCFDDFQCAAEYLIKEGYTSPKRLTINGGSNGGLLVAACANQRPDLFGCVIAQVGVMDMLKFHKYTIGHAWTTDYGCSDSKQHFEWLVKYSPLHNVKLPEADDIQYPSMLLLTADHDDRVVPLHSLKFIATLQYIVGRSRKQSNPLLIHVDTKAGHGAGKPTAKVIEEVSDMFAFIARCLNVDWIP
Assay: In vitro gel-based competitive ABPP in HEK293 cell lysates, 70 kDa band
Conditions: HEK293 lysate; 10 µM competitor, 30 min; 10 µM 2; green light 5 min
Description: Therefore, HEK293 cell lysates were pre‐incubated with 10 µM 5 or DMSO vehicle control for 30 min, followed by a labeling reaction with 2 µM of the serine hydrolase‐specific ABP fluorophosphonate‐alkyne (≡FP) or 10 µM 2 (Figure 2B). […] Of note, this band has been previously assigned as DPP9 (DPP8 would migrate in the same range, but is only expressed at low levels in the used cell line and therefore cannot be visualized by this approach).^[ [36] ^, [37] ^] […] Again, this labeling was observed regardless of prior irradiation. Subsequently, the competitive labeling experiment was conducted by pre‐incubation with compound 5, with or without subsequent irradiation.
Figure 2 Competitive ABPP with photo‐cleavable inhibitor 5 in HEK293 cells. […] HEK293 cells were irradiated with a green LED lamp in the presence of 0.5% DMSO for 5 min (‘light’), and cell viability was measured after 24 h. […] For both compounds, cell viability was measured under ‘dark’ (not irradiated) and ‘light’ (irradiated for 5 min with a green LED lamp after the addition of the inhibitor) conditions. […]
For in vitro ABPP, cell lysates were generated from HEK293 cells grown on a 10 cm tissue dish. […] The cell lysates were cleared via centrifugation (30 min, 20,817 × g, 4 °C), and protein concentration was determined with a modified Bradford assay using Roti‐Nanoquant (Carl Roth, Germany). […]

CCCCCc1ccc(SCCP(=O)(OCC)N2CCC[C@H](NC(=O)OCC3=C4C(C)=CC(C)=[N+]4[B-](C)(C)n4c(C)cc(C)c43)C2=O)cc1 (stereo partly shown) [Compound 5]
Competition of PREP band labeling by ABP 2 (in words): slight reduction
